Experimental findings from patent US10370355B2, “Tetrahydroisoquinoline derivatives” (UCB Biopharma SPRL, priority 2016, dated 2019) are described below.

This assay deals with T1, dopamine D1 receptor (Homo sapiens, UniProt P21728).
T1 construct: host or cells: LMtk (Ltk-) mouse fibroblast cells
As to the kind of experiment: cAMP HTRF potentiation assay (presence of EC20 dopamine). In kind it is cell-based. The following applies: potentiation of cAMP in presence of EC20 dopamine (1.1 nM); LMtk (Ltk-) mouse fibroblast cells expressing the dopamine D1 receptor. An excerpt: The present assay allows to measure respectively the effects of compounds of the Examples in the absence of dopamine (“activation assay”) and the effects of compounds of the Examples in the presence of dopamine (“potentiation assay”).
The potentiation assay measures the ability of compounds to increase the levels of cAMP produced by a low-threshold concentration of dopamine. The concentration of dopamine used ([EC20]) is designed to produce 20% stimulation compared to the maximal response (100%) seen with increasing the concentration of dopamine. To measure this potentiation we incubate increasing concentrations of the compound with the [EC2O] of dopamine and measure the potentiation as increases in cAMP production. The pEC50 of a compound is the −log 10 of the concentration of the compound which produces 50% of the potentiation of the cAMP levels and the Erel is the relative efficacy, defined as the maximal % potentiation produced by the compound compared to the maximal response produced by increasing concentrations of dopamine (Erel of 1=dopamine maximum response).
Cells were cultured at 37° C. in a humidified atmosphere of 5% CO2. Cells were grown in DMEM-F12+GlutaMAX™-I medium (GIBCO®, Invitrogen, Merelbeke, Belgium) containing 10% fetal bovine serum (BioWhittaker®, Lonza, Verviers, Belgium), 400 μg/mL Geneticin (GIBCO®), 100 IU/mL Penicillin and 100 IU/mL Streptomycin (Pen-Strep solution, BioWhittaker®).
The measurement of changes in intracellular cyclic adenosinemonophopshpate (cAMP) was determined using the HTRF cAMP dynamic assay kit from CisBio (Codolet, France). Using homogenous time-resolved fluoresence technology, the assay is based on competition between native cAMP produced by cells and cAMP labelled with the dye d2. The tracer binding is determined by an anti-cAMP antibody labeled with cryptate. The effects of the compound alone (agonism) was determined by performing the assay in the absence of dopamine, whilst the effect of the compound as a positive allosteric modulator (PAM) was determined in the presence of an EC20 concentration of dopamine. Cells (20,000 per well) are incubated in 384 plates for 1 hour at room temperature in a final volume of 20 μLHBSS (Lonza, with calcium, magnesium and HEPES buffer 20 mM, pH 7.4) containing: isobutyl methylxanthine (Sigma, 0.1 mM final), varying concentrations of test compound (typically […] to 10^−4.5M) in the presence and absence of dopamine (1.1 nM final). The reaction is then terminated and the cells lysed by adding the d2 detection reagent in lysis buffer (10 microL) and the cryptate reagent in lysis buffer (10 microl) according to manufacturer's instructions. This is then incubated for a further 60 min at room temperature and changes in HTRF fluorescent emission ratio determined according to manufacturer's instructions using an Envision plate reader (Perkin Elmer, Zaventem, Belgium) with laser excitation. All incubations were performed in duplicate and results were compared to a concentration-effect curve to dopamine. (10^−11M to 10^−6M).
Data was analyzed using Excel and PRISM (GraphPad Software) to obtain pEC50 and Erel using the 4-parameter logistic equation (DeLean et al, 1978) where Erel is the fitted maximal response of the test compound minus basal expressed as a percentage relative to that obtained with dopamine which was defined as 100%.

Molecules are shown by their SMILES.

T1 sequence (P21728 whole entry): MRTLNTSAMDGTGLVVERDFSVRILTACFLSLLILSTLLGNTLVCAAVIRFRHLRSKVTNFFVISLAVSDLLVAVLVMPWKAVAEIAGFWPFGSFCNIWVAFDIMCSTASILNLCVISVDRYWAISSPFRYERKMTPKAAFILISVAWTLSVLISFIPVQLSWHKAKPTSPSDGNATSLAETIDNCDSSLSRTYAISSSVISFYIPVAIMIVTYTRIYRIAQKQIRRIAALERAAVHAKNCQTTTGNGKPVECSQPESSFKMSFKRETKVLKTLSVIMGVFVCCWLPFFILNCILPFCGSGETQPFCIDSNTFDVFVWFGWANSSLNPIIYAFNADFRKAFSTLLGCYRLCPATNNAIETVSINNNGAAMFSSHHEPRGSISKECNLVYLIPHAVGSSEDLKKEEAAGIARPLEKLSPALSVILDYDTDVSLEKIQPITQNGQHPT

Take `C[C@H]1c2cccc(C(C)(O)C(F)F)c2CCN1C(=O)Cc1c(Cl)ccc2[nH]nc(Cl)c12` (single isomer, unassigned) [Example 6]: the half-maximal effective concentration (EC50) was at most 31.6 nM.
Take `C[C@H]1c2cccc(C(C)(O)C(F)F)c2CCN1C(=O)Cc1c(Cl)ccc2nn(C)c(Cl)c12` (single isomer, unassigned) [Example 12]: the EC50 was 31.6 to 100 nM.
Take `C[C@H]1c2cccc(C(C)(O)C(F)F)c2CCN1C(=O)Cc1c(Cl)cnc2[nH]nc(Cl)c12` (single isomer, unassigned) [Example 16]: the concentration for a half-maximal effect (EC50) was at most 31.6 nM.
In the case of `C[C@H]1c2cccc(C(C)(O)C(F)F)c2CCN1C(=O)Cc1c(Cl)cnc2c1c(Cl)nn2C` (single isomer, unassigned) [Example 21], the EC50 was at most 31.6 nM.
Next, `C[C@H]1c2cccc(C(C)(O)C(F)F)c2CCN1C(=O)Cc1c(Cl)ccc2c1c(Cl)nn2C` (single isomer, unassigned) [Example 26]: 31.6 to 100 nM; `C[C@H]1c2cccc(C(C)(O)C(F)F)c2CCN1C(=O)Cc1c(Cl)c(C2CC2)cn2ncc(Cl)c12` (single isomer, unassigned) [Example 31]: 31.6 to 100 nM; `C[C@H]1c2cccc(C(C)(O)C(F)F)c2CCN1C(=O)Cc1c(Cl)c(C#N)cn2ncc(Cl)c12` (single isomer, unassigned) [Example 32]: at most 31.6 nM.
With `C[C@H]1c2cccc([C@H](O)C(F)F)c2CCN1C(=O)Cc1c(Cl)ccc2onc(Cl)c12` [Example 1, 2-(3,5-dichloro-1,2-benzoxazol-4-yl)-1-[(1S)-5-[(1S)-2,2-difluoro-1-hydroxy-ethyl]-1-methyl-3,4-dihydro-1H-isoquinolin-2-yl]ethanone], the EC50 is at most 31.6 nM.
The result for `C[C@H]1c2cccc([C@@](C)(O)CF)c2CCN1C(=O)Cc1c(Cl)ccc2[nH]nc(Cl)c12` [Example 2, 2-(3,5-dichloro-1H-indazol-4-yl)-1-[(1S)-5-[(1R)-2-fluoro-1-hydroxy-1-methyl-ethyl]-1-methyl-3,4-dihydro-1H-isoquinolin-2-yl]ethanone] reads at most 31.6 nM; that for `C[C@H]1c2cccc([C@](C)(O)CF)c2CCN1C(=O)Cc1c(Cl)ccc2[nH]nc(Cl)c12` [Example 3, 2-(3,5-dichloro-1H-indazol-4-yl)-1-[(1S)-5-[(1S)-2-fluoro-1-hydroxy-1-methyl-ethyl]-1-methyl-3,4-dihydro-1H-isoquinolin-2-yl]ethanone], at most 31.6 nM; that for `C[C@H]1c2cccc([C@@H](O)C(F)F)c2CCN1C(=O)Cc1c(Cl)ccc2[nH]nc(Cl)c12` [Example 4, 2-(3,5-dichloro-1H-indazol-4-yl)-1-[(1S)-5-[(1R)-2,2-difluoro-1-hydroxy-ethyl]-1-methyl-3,4-dihydro-1H-isoquinolin-2-yl]ethanone], at most 31.6 nM.
Regarding `C[C@H]1c2cccc([C@H](O)C(F)F)c2CCN1C(=O)Cc1c(Cl)ccc2[nH]nc(Cl)c12` [Example 5, 2-(3,5-dichloro-1H-indazol-4-yl)-1-[(1S)-5-[(1S)-2,2-difluoro-1-hydroxy-ethyl]-1-methyl-3,4-dihydro-1H-isoquinolin-2-yl]ethanone], the EC50 is at most 31.6 nM.
The result for `C[C@H]1c2cccc([C@@H](O)C(F)F)c2CCN1C(=O)Cc1c(Cl)ccc2nn(C)c(Cl)c12` [Example 8, 2-(3,5-dichloro-2-methyl-indazol-4-yl)-1-[(1S)-5-[(1R)-2,2-difluoro-1-hydroxy-ethyl]-1-methyl-3,4-dihydro-1H-isoquinolin-2-yl]ethanone] reads at most 31.6 nM.
Regarding `C[C@H]1c2cccc([C@H](O)C(F)F)c2CCN1C(=O)Cc1c(Cl)ccc2nn(C)c(Cl)c12` [Example 9, 2-(3,5-dichloro-2-methyl-indazol-4-yl)-1-[(1S)-5-[(1S)-2,2-difluoro-1-hydroxy-ethyl]-1-methyl-3,4-dihydro-1H-isoquinolin-2-yl]ethanone], the EC50 is 31.6 to 100 nM.
For `C[C@H]1c2cccc([C@@H](O)C(F)F)c2CCN1C(=O)Cc1c(Cl)ccc2c1c(Cl)nn2C` [Example 10, 2-(3,5-dichloro-1-methyl-indazol-4-yl)-1-[(1S)-5-[(1R)-2,2-difluoro-1-hydroxy-ethyl]-1-methyl-3,4-dihydro-1H-isoquinolin-2-yl]ethanone], the EC50 was 31.6 to 100 nM.
As for `C[C@H]1c2cccc([C@H](O)C(F)F)c2CCN1C(=O)Cc1c(Cl)ccc2c1c(Cl)nn2C` [Example 11, 2-(3,5-dichloro-1-methyl-indazol-4-yl)-1-[(1S)-5-[(1S)-2,2-difluoro-1-hydroxy-ethyl]-1-methyl-3,4-dihydro-1H-isoquinolin-2-yl]ethanone], the EC50 is 31.6 to 100 nM.
`C[C@H]1c2cccc([C@](C)(O)CF)c2CCN1C(=O)Cc1c(Cl)cnc2[nH]nc(Cl)c12` [Example 14, 2-(3,5-dichloro-1H-pyrazolo[3,4-b]pyridin-4-yl)-1-[(1S)-5-[(1S)-2-fluoro-1-hydroxy-1-methyl-ethyl]-1-methyl-3,4-dihydro-1H-isoquinolin-2-yl]ethanone]: the EC50 is at most 31.6 nM.
In the case of `C[C@H]1c2cccc([C@@](C)(O)CF)c2CCN1C(=O)Cc1c(Cl)cnc2[nH]nc(Cl)c12` [Example 15, 2-(3,5-dichloro-1H-pyrazolo[3,4-b]pyridin-4-yl)-1-[(1S)-5-[(1R)-2-fluoro-1-hydroxy-1-methyl-ethyl]-1-methyl-3,4-dihydro-1H-isoquinolin-2-yl]ethanone], the EC50 is at most 31.6 nM.
`C[C@H]1c2cccc(C(O)(CF)CF)c2CCN1C(=O)Cc1c(Cl)cnc2[nH]nc(Cl)c12` [Example 18, 2-(3,5-dichloro-1H-pyrazolo[3,4-b]pyridin-4-yl)-1-[(1S)-5-[2-fluoro-1-(fluoromethyl)-1-hydroxy-ethyl]-1-methyl-3,4-dihydro-1H-isoquinolin-2-yl]ethanone]: the EC50 is 31.6 to 100 nM.
As for `C[C@H]1c2cccc([C@@](C)(O)CF)c2CCN1C(=O)Cc1c(Cl)cnc2c1c(Cl)nn2C` [Example 19, 2-(3,5-dichloro-1-methyl-pyrazolo[3,4-b]pyridin-4-yl)-1-[(1S)-5-((1R)-2-fluoro-1-hydroxy-1-methyl-ethyl)-1-methyl-3,4-dihydro-1H-isoquinolin-2-yl]ethanone], the EC50 was 31.6 to 100 nM.
The result for `C[C@H]1c2cccc([C@](C)(O)CF)c2CCN1C(=O)Cc1c(Cl)cnc2c1c(Cl)nn2C` [Example 20, 2-(3,5-dichloro-1-methyl-pyrazolo[3,4-b]pyridin-4-yl)-1-[(1S)-5-((1S)-2-fluoro-1-hydroxy-1-methyl-ethyl)-1-methyl-3,4-dihydro-1H-isoquinolin-2-yl]ethanone] reads at most 31.6 nM; that for `C[C@H]1c2cccc(C(O)(CF)CF)c2CCN1C(=O)Cc1c(Cl)cnc2c1c(Cl)nn2C` [Example 23, 2-(3,5-dichloro-1-methyl-pyrazolo[3,4-b]pyridin-4-yl)-1-[(1S)-5-[2-fluoro-1-(fluoromethyl)-1-hydroxy-ethyl]-1-methyl-3,4-dihydro-1H-isoquinolin-2-yl]ethanone], 31.6 to 100 nM.
In the case of `C[C@H]1c2cccc([C@@](C)(O)CF)c2CCN1C(=O)Cc1c(Cl)ccc2c1c(Cl)nn2C` [Example 24, 2-(3,5-dichloro-1-methyl-indazol-4-yl)-1-[(1S)-5-[(1R)-2-fluoro-1-hydroxy-1-methyl-ethyl]-1-methyl-3,4-dihydro-1H-isoquinolin-2-yl]ethanone], the EC50 was 31.6 to 100 nM.
For `C[C@H]1c2cccc([C@](C)(O)CF)c2CCN1C(=O)Cc1c(Cl)ccc2c1c(Cl)nn2C` [Example 25, 2-(3,5-dichloro-1-methyl-indazol-4-yl)-1-[(1S)-5-[(1S)-2-fluoro-1-hydroxy-1-methyl-ethyl]-1-methyl-3,4-dihydro-1H-isoquinolin-2-yl]ethanone], the EC50 is 31.6 to 100 nM.
For the compound `C[C@H]1c2cccc(C(O)(CF)CF)c2CCN1C(=O)Cc1c(Cl)ccc2c1c(Cl)nn2C` [Example 28, 2-(3,5-dichloro-1-methyl-indazol-4-yl)-1-[(1S)-5-[2-fluoro-1-(fluoromethyl)-1-hydroxy-ethyl]-1-methyl-3,4-dihydro-1H-isoquinolin-2-yl]ethanone], the EC50 is at most 31.6 nM.
